Source: US20250129021A1, “SMALL MOLECULE PROTEIN SYNTHESIS MODULATORS” (Interdict Bio, Inc., priority 2023, published 2025)

How the values were obtained:
Type in all cases: biochemical
MYC = experiment: In vitro transcription-translation (IVTT) assay, MYC reporter; details: IVTT assay, HeLa S3 lysate, MYC reporter, normalized sfGFP/mCherry ratio; half-log dilutions 30 μM-0.1 μM, 2 hrs at 30° C.
Procedure, shortened: (§1)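 Reporter: mCherry, P2A, then 3×FLAG-target peptide-sfGFP fusion, IRES-initiated; HeLa S3 lysate IVTT; cpd dilutions 30 μM−0.1 μM half-log in 100% DMSO (dilution-plate conc); DNA added last; 2 h, 30° C; PBS quench.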

JAK1 = experiment: In vitro transcription-translation (IVTT) assay, JAK1 reporter; details: HeLa S3 lysate, 2 hrs at 30° C.
Procedure: (§2) Each preparation takes 8 cell pellets (4 ml packed volume each, approximately 1.0×10^9 cells per pellet). Thaw cell pellets from −80° C. on ice for 90 mins. Lay pellets horizontally on top of the ice and rotate every 30 mins to ensure even thawing. Once thawed, add 4 mL of cold lysis buffer to each pellet, and using a serological pipet, gently pipet up and down to break up clumps. Incubate resuspended cells in ice for an additional 30 mins (plunged into ice). During 30 min incubation, rinse and RNase-zap (Ambion) glass dounces (use loose pestle “A”), gently dry and place on ice until needed. Prepare RNase-free Eppendorf tubes for spinning and for batch storage. […]
(§3) In vitro transcription-translation assay setup: Each assay includes a master mix containing lysate and shared components, a 96-well plate containing compound titrations for testing, a 96-well DNA plate with reporter constructs to be tested, 96-well skirted PCR plates, and 96-well flat-bottom, black, fluorescent assay plates. […] After 2 hrs, quench the assay using 45 μL of PBS, and transfer 50 μL to a flat-bottom black microplate Quantify the sfGFP and mCherry signals from each well on each plate, taking 3 reads of each plate, and perform data analysis below.
(§4) In vitro transcription-translation assay data analysis: Each plate is read three times in channels for both sfGFP and mCherry signals. […]

CCNTB1 = experiment: In vitro transcription-translation (IVTT) assay, CCNTB1 reporter; details: HeLa S3 lysate, 2 hrs at 30° C.
Procedure, shortened: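 HeLa S3 lysate-based coupled transcription-translation reactions with reporter plasmids, compounds in half-log dilutions (30 μM−0.1 μM, in DMSO), 2 h at 30° C. sfGFP/mCherry ratio, corrected for no-DNA background, normalized to no-drug control and fitted for IC50.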

cGAS = experiment: In vitro transcription-translation (IVTT) assay, cGAS reporter; details: HeLa S3 lysate, 2 hrs at 30° C.
Procedure: as §2, §3, §4

STING = experiment: In vitro transcription-translation (IVTT) assay, STING reporter; details: HeLa S3 lysate, 2 hrs at 30° C.
Procedure: as §2, §3, §4

MCL-1 = experiment: In vitro transcription-translation (IVTT) assay, MCL-1 reporter; details: IVTT, HeLa S3 lysate, 2 hrs at 30° C.; read-out: MCL1 IC50
Procedure, shortened: as §1

CCND1 = experiment: In vitro transcription-translation (IVTT) assay, CCND1 reporter; details: IVTT, HeLa S3 lysate, 2 hrs at 30° C.
Procedure, shortened: as §1

NFKB1 = experiment: In vitro transcription-translation (IVTT) assay, NFKB1 reporter; details: HeLa S3 lysate, 2 hrs at 30° C.
Procedure: as §2, §3, §4

Measured: IC50

O=C(NCc1cccc(F)c1)O[C@@H]1[C@@H](O)CN[C@@H]1Cc1ccc(-c2cnco2)cc1 [V190545, (2R,3S,4S)-4-hydroxy-2-{[4-(1,3-oxazol-5-yl)phenyl]methyl}pyrrolidin-3-yl N-[(3-fluorophenyl)methyl]carbamate]
not listed: NFKB1
< 10 µM: all other assays above

O=C(NCc1ccccc1)O[C@@H]1[C@@H](O)CN[C@@H]1Cc1ccc(-c2ccc3c(c2)CNC3)cc1 [V188347, (2R,3S,4S)-2-{[4-(2,3-dihydro-1H-isoindol-5-yl)phenyl]methyl}-4-hydroxypyrrolidin-3-yl N-benzylcarbamate]
< 10 µM: all assays above
